In the NIST ThermoML archive (doi:10.1016/j.fluid.2009.05.005):
Numbers after ± are expanded uncertainties. One block for each compound: values may come before it.

How the values were obtained:
[1] = Excess molar heat capacity; xn = mol fraction of the nth substance listed; conditions: 298.15 K; 101 kPa; Liquid; Flow calorimetry; x2 = 0
[2] = activity coefficient (dimensionless); of the first substance listed, at infinite dilution; xn = mol fraction of the nth substance listed; conditions: 101 kPa, Liquid, circulation still, x1 = 0
[3] = 333.15 K, Rayleigh distillation
[4] = 343.15 K, Rayleigh distillation
[5] = 353.15 K, Rayleigh distillation

molar heat capacity [1]: 131 ± 2 J/K/mol
Compound: O [water] + CN1CCCC1=O

Compound: c1ccncc1 [pyridine] + O
activity coefficient [2, 3]: 24 ± 0.1 | activity coefficient [2, 4]: 25.5 ± 0.1 | activity coefficient [2, 5]: 26 ± 0.1 | activity coefficient ([2]; 372.8 K, Rayleigh distillation): 25.4 ± 0.1

Compound: C1CCNCC1 [piperidine] + O
activity coefficient [2, 3]: 11.9 ± 0.1 | activity coefficient [2, 4]: 14.7 ± 0.1 | activity coefficient [2, 5]: 17.7 ± 0.1 | activity coefficient ([2]; 372.6 K, Rayleigh distillation): 21 ± 0.1

activity coefficient ([2]; 333.15 K, differential distillation): 1.34 ± 0.06 | activity coefficient ([2]; 343.15 K, differential distillation): 1.56 ± 0.06 | activity coefficient ([2]; 353.15 K, differential distillation): 1.75 ± 0.06 | activity coefficient ([2]; 372.85 K, differential distillation): 2.07 ± 0.1
Compound: CN1CCCC1=O [N-methylpyrrolidone] + O
